Tests used:
Hep 3B2 [1] = assay: Induction of autophagy in human Hep3B cells at 20 uM after 24 hrs by acridine orange staining based flow cytometry (reference value: 1.1 to 1.3%); type: functional
Hep 3B2 [2] = assay: Cell cycle arrest in human Hep3B cells assessed as accumulation at S phase at 2.5 uM after 24 hrs by propidium iodide staining based flow cytometry (reference value: 22.6 to 27.1%); type: functional
Hep 3B2 [3] = assay: Induction of autophagy in human Hep3B cells at 10 uM after 72 hrs by acridine orange staining based flow cytometry (reference value: 1.1 to 4%); type: functional
Hep 3B2 [4] = assay: Induction of autophagy in human Hep3B cells at 40 uM after 48 hrs by acridine orange staining based flow cytometry (reference value: 0.9 to 3%); type: functional
Hep 3B2 [5] = assay: Cell cycle arrest in human Hep3B cells assessed as accumulation at S phase at 5 uM after 72 hrs by propidium iodide staining based flow cytometry (reference value: 16.4 to 21.1%); type: functional
Hep 3B2 [6] = assay: Cell cycle arrest in human Hep3B cells assessed as accumulation at S phase at 20 uM after 48 hrs by propidium iodide staining based flow cytometry (reference value: 20.8 to 24%); type: functional
Hep 3B2 [7] = assay: Cell cycle arrest in human Hep3B cells assessed as accumulation at G0/G1 phase at 20 uM after 48 hrs by propidium iodide staining based flow cytometry (reference value: 39.7 to 40.4%); type: functional
Hep 3B2 [8] = assay: Cell cycle arrest in human Hep3B cells assessed as accumulation at sub-G1 phase at 20 uM after 48 hrs by propidium iodide staining based flow cytometry (reference value: 1.5 to 6.5%); type: functional
Hep 3B2 [9] = assay: Cell cycle arrest in human Hep3B cells assessed as accumulation at G0/G1 phase at 5 uM after 72 hrs by propidium iodide staining based flow cytometry (reference value: 41.6 to 46.2%); type: functional
Hep 3B2 [10] = assay: Cell cycle arrest in human Hep3B cells assessed as accumulation at sub-G1 phase at 40 uM after 72 hrs by propidium iodide staining based flow cytometry (reference value: 0.6 to 3.3%); type: functional
Hep 3B2 [11] = assay: Cell cycle arrest in human Hep3B cells assessed as accumulation at G2/M phase at 5 uM after 72 hrs by propidium iodide staining based flow cytometry (reference value: 28.7 to 32.3%); type: functional
Hep 3B2 [12] = assay: Cell cycle arrest in human Hep3B cells assessed as accumulation at S phase at 10 uM after 48 hrs by propidium iodide staining based flow cytometry (reference value: 20.8 to 24%); type: functional
Hep 3B2 [13] = assay: Cell cycle arrest in human Hep3B cells assessed as accumulation at S phase at 40 uM after 48 hrs by propidium iodide staining based flow cytometry (reference value: 20.8 to 24%); type: functional
Hep 3B2 [14] = assay: Cell cycle arrest in human Hep3B cells assessed as accumulation at G2/M phase at 10 uM after 72 hrs by propidium iodide staining based flow cytometry (reference value: 28.7 to 32.3%); type: functional
Hep 3B2 [15] = assay: Cell cycle arrest in human Hep3B cells assessed as accumulation at G2/M phase at 2.5 uM after 72 hrs by propidium iodide staining based flow cytometry (reference value: 28.7 to 32.3%); type: functional
Hep 3B2 [16] = assay: Cell cycle arrest in human Hep3B cells assessed as accumulation at S phase at 5 uM after 48 hrs by propidium iodide staining based flow cytometry (reference value: 20.8 to 24%); type: functional
[17] = Growth inhibition of HUVEC at 12.5 uM after 24 hrs by MTT assay relative to control; type: cell-based; conditions: human, HUVEC cells; read-out: GI
Hep 3B2 [18] = assay: Up regulation of CDCA4 expression in human Hep3B cells at 1 uM after 6 to 24 hrs by L1000 expression profiling method relative to control; type: functional
Hep 3B2 [19] = assay: Cell cycle arrest in human Hep3B cells assessed as accumulation at G2/M phase at 10 uM after 48 hrs in presence of curcumin by propidium iodide staining based flow cytometry (reference value: 36.6 +/- 2.9%); type: functional
Hep 3B2 [20] = assay: Down regulation of ARL4C expression in human Hep3B cells at 1 uM after 6 to 24 hrs by L1000 expression profiling method relative to control; type: functional
Hep 3B2 [21] = assay: Down regulation of DUSP11 expression in human Hep3B cells at 1 uM after 6 to 24 hrs by L1000 expression profiling method relative to control; type: functional
Hep 3B2 [22] = assay: Cell cycle arrest in human Hep3B cells assessed as accumulation at sub-G1 phase at 2.5 to 20 uM by propidium iodide staining based flow cytometry; type: functional; conditions: TDE = time-dependent effect
Hep 3B2 [23] = assay: Down regulation of GNA15 expression in human Hep3B cells at 1 uM after 6 to 24 hrs by L1000 expression profiling method relative to control; type: functional
Hep 3B2 [24] = assay: Induction of autophagy in human Hep3B cells after 48 to 72 hrs by acridine orange staining based flow cytometry; type: functional, cell-based
Hep 3B2 [25] = assay: Cytotoxicity against human Hep3B cells after 6 days by MTT assay; type: functional, cell-based; conditions: 144 h
Hep 3B2 [26] = assay: Cell cycle arrest in human Hep3B cells assessed as accumulation at sub-G1 phase after 24 to 72 hrs by propidium iodide staining based flow cytometry; type: functional
Hep 3B2 [27] = assay: Down regulation of SNX7 expression in human Hep3B cells at 1 uM after 6 to 24 hrs by L1000 expression profiling method relative to control; type: functional
Hep 3B2 [28] = assay: Cytotoxicity against human Hep3B cells at 20 uM after 48 hrs by MTT assay relative to control; type: functional
Hep 3B2 [29] = assay: Down regulation of SHB expression in human Hep3B cells at 1 uM after 6 to 24 hrs by L1000 expression profiling method relative to control; type: functional
Hep 3B2 [30] = assay: Down regulation of ARNT2 expression in human Hep3B cells at 1 uM after 6 to 24 hrs by L1000 expression profiling method relative to control; type: functional
Hep 3B2 [31] = assay: Cytotoxicity against human Hep3B cells after 48 hrs by MTT assay; type: functional, cell-based
Hep 3B2 [32] = assay: Down regulation of ORC1 expression in human Hep3B cells at 1 uM after 6 to 24 hrs by L1000 expression profiling method relative to control; type: functional
Hep 3B2 [33] = assay: Effect on total GSK3beta expression in human Hep3B cells assessed as ratio of GSKbeta to beta-actin level at 10 uM after 48 hrs by Western blot analysis; type: cell-based; conditions: hep 3b2, 48 h
Hep 3B2 [34] = assay: Up regulation of CDKN1A expression in human Hep3B cells at 1 uM after 6 to 24 hrs by L1000 expression profiling method relative to control; type: functional
Hep 3B2 [35] = assay: Down regulation of MMP2 expression in human Hep3B cells at 1 uM after 6 to 24 hrs by L1000 expression profiling method relative to control; type: functional
Hep 3B2 [36] = assay: Up regulation of […] expression in human Hep3B cells at 1 uM after 6 to 24 hrs by L1000 expression profiling method relative to control; type: functional
Hep 3B2 [37] = assay: Induction of apoptosis in human Hep3B cells assessed as ratio of cleaved caspase-3 to beta actin level at 10 uM after 48 hrs in absence of curcumin by Western blot analysis; type: functional
Hep 3B2 [38] = assay: Down regulation of CD40 expression in human Hep3B cells at 1 uM after 6 to 24 hrs by L1000 expression profiling method relative to control; type: functional

COc1ccc(CNC(=O)Nc2ncc([N+](=O)[O-])s2)cc1 gave an Activity (Hep 3B2 [1]) of 8.9%, an Activity (Hep 3B2 [2]) of 25.7% and an Activity (Hep 3B2 [3]) of 13.2%. The Activity (Hep 3B2 [4]) was 7.7%, the Activity (Hep 3B2 [5]) was 21.7% and the Activity (Hep 3B2 [6]) was 20%. For the same compound, the Activity (Hep 3B2 [7]) was 37.8%, the Activity (Hep 3B2 [8]) was 3.6% and the Activity (Hep 3B2 [9]) was 42.4%. The Activity (Hep 3B2 [10]) was 5.4%, the Activity (Hep 3B2 [11]) was 33.9% and the Activity (Hep 3B2 [12]) was 23.2%. It also gave an Activity (Hep 3B2 [13]) of 14.9%, an Activity (Hep 3B2 [14]) of 34.1% and an Activity (Hep 3B2 [15]) of 35.3%. The Activity (Hep 3B2 [16]) was 24.6%.
O=C1COc2ccccc2N1Cc1cn(CCC2OCCO2)nn1 gave an Activity (Hep 3B2 [1]) of 5.5%, an inhibition at 24 h, 12.5 µM [17] of 15.2% and a log2FC (Hep 3B2 [18]) of 3.2705. For the same compound, the Activity (Hep 3B2 [19]) was 44.8%, the log2FC (Hep 3B2 [20]) was -3.744 and the log2FC (Hep 3B2 [21]) was -3.3243. For the same compound, the Activity (Hep 3B2 [22]) was “Tde”, the log2FC (Hep 3B2 [23]) was -4.0259 and the Activity (Hep 3B2 [3]) was 49.4%. For the same compound, the Activity (Hep 3B2 [24]) was “Dose-dependent effect”, the Activity (Hep 3B2 [8]) was 57.2% and the IC50 (Hep 3B2 [25]) was 500 nM. The Activity (Hep 3B2 [26]) was “Dose-dependent effect”, the log2FC (Hep 3B2 [27]) was -4.1511 and the Activity (Hep 3B2 [28]) was 53.4%. It also gave a log2FC (Hep 3B2 [29]) of -3.2569, a log2FC (Hep 3B2 [30]) of -5.0177 and an IC50 (Hep 3B2 [31]) of 16.8 µM. It also gave a log2FC (Hep 3B2 [32]) of -3.3272, a Ratio (Hep 3B2 [33]) of 0.8 and a log2FC (Hep 3B2 [34]) of 3.0523. It also gave a log2FC (Hep 3B2 [35]) of -4.0779, a log2FC (Hep 3B2 [36]) of 3.5557 and a Ratio (Hep 3B2 [37]) of 2.8. It also gave a log2FC (Hep 3B2 [38]) of -3.3087.
For CNC(=O)c1cc(Oc2ccc(NC(=O)Nc3ccc(Cl)c(C(F)(F)F)c3)cc2)ccn1 [SORAFENIB], the inhibition at 24 h, 12.5 µM [17] was 37.4%, the Activity (Hep 3B2 [22]) was “Tde” and the Activity (Hep 3B2 [2]) was 21.9%. It also gave an Activity (Hep 3B2 [5]) of 13.7%, an Activity (Hep 3B2 [6]) of 9.6% and an Activity (Hep 3B2 [7]) of 27.8%. For the same compound, the Activity (Hep 3B2 [26]) was “Dose-dependent effect”, the Activity (Hep 3B2 [28]) was 68.4% and the Activity (Hep 3B2 [9]) was 47.8%. It also gave an IC50 (Hep 3B2 [31]) of 11.2 µM, an Activity (Hep 3B2 [11]) of 31.3% and an Activity (Hep 3B2 [12]) of 8.8%. It also gave an Activity (Hep 3B2 [14]) of 22.7% and an Activity (Hep 3B2 [16]) of 13.1%.

From ChEMBL document CHEMBL4024707, “Using gene expression database to uncover biology functions of 1,4-disubstituted 1,2,3-triazole analogues synthesized via a copper (I)-catalyzed reaction” (Eur J Med Chem, 2017)
